Source: US20220395496A1 (Hoffmann-La Roche Inc., priority 2019, published 2022)

Target: T1, human TLR7 (Homo sapiens, UniProt Q9NYK1)
T1 sequence (Q9NYK1 27-1049): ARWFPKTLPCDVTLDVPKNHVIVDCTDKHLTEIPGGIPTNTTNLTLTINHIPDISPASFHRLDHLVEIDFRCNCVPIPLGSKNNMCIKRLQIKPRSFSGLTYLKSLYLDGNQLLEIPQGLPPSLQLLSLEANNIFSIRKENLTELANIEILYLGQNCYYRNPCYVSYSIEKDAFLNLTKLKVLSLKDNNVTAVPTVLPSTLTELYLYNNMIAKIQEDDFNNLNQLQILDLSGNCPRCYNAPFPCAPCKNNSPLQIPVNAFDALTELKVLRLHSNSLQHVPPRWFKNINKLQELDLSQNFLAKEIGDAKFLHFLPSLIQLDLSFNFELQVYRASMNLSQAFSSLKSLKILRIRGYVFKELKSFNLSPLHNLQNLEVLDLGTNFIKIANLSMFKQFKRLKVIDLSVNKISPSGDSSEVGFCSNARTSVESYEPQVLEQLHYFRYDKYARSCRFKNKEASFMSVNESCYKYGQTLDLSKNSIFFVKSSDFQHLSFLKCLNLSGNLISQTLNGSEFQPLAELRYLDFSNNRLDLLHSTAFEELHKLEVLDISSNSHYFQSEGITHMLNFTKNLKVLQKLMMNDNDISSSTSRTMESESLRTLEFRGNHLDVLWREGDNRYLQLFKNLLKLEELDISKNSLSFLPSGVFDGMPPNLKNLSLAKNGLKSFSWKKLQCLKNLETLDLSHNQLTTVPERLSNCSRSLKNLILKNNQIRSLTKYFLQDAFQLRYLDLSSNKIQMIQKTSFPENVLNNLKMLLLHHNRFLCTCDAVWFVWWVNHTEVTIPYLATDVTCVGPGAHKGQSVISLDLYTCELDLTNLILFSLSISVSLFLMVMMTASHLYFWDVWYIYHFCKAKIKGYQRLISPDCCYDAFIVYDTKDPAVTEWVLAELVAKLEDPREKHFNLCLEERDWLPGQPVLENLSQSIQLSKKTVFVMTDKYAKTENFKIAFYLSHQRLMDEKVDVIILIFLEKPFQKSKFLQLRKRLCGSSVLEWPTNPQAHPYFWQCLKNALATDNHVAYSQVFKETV
Assay: HEK293-Blue-hTLR-7 cells assay (SEAP reporter, R848 stimulation)
Assay type: cell-based
Details: HEK293-Blue-hTLR7 cells, R848, 20 hrs; lowest tested concentration 0.0032
Protocol: The following tests were carried out in order to determine the activity of the compounds of this invention in HEK293-Blue-hTLR-7/8/9 cells assay.
HEK293-Blue-hTLR-7 Cells Assay:
A stable HEK293-Blue-hTLR-7 cell line was purchased from InvivoGen (Cat. #: hkb-htlr7, San Diego, Calif., USA). These cells were originally designed for studying the stimulation of human TLR7 by monitoring the activation of NF-κB. A SEAP (secreted embryonic alkaline phosphatase) reporter gene was placed under the control of the IFN-β minimal promoter fused to five NF-κB and AP-1-binding sites. The SEAP was induced by activating NF-κB and AP-1 via stimulating HEK-Blue hTLR7 cells with TLR7 ligands. Therefore the reporter expression was declined by TLR7 antagonist under the stimulation of a ligand, such as R848 (Resiquimod), for incubation of 20 hrs. The cell culture supernatant SEAP reporter activity was determined using QUANTI-Blue™ kit (Cat. #: rep-qb1, Invivogen, San Diego, Calif., USA) at a wavelength of 640 nm, a detection medium that turns purple or blue in the presence of alkaline phosphatase.
HEK293-Blue-hTLR7 cells were incubated at a density of 250,000˜450,000 cells/mL in a volume of 170 μL in a 96-well plate in Dulbecco's Modified Eagle's medium (DMEM) containing 4.5 g/L glucose, 50 U/mL penicillin, […], […], 2 mM L-glutamine, 10% (v/v) heat-inactivated fetal bovine serum with addition of 20 μL test compound in a serial dilution in the presence of final DMSO at 1% and 10 μL of 20 uM R848 in above DMEM, perform incubation under 37° C. in a CO2 incubator for 20 hrs. Then 20 μL of the supernatant from each well was incubated with 180 μL Quanti-blue substrate solution at 37° C. for 2 hrs and the absorbance was read at 620-655 nm using a spectrophotometer. The signalling pathway that TLR7 activation leads to downstream NF-κB activation has been widely accepted, and therefore similar reporter assay was modified for evaluating TLR7 antagonist.

First: C[C@H]1C[C@@H](N2CCc3cc(N4CCNCC4)ccc3C2)CN(c2ccc(C#N)c3ncccc23)C1 (relative stereo) [Example 24, 5-[cis-3-methyl-5-(6-piperazin-1-yl-3,4-dihydro-1H-isoquinolin-2-yl)-1-piperidyl]quinoline-8-carbonitrile]
Second: C[C@H]1C[C@@H](NCc2ccc(N3CCNCC3)cc2F)CN(c2ccc(C#N)c3ncccc23)C1 [Example 4, 5-[(3R,58)-3-[(2-fluoro-4-piperazin-1-yl-phenyl)methylamino]-5-methyl-1-piperidyl]quinoline-8-carbonitrile]
The IC50 of the first is 4-fold higher: 52 nM for the first, 13 nM for the second. The second is the more potent here.

Compared with `C[C@H]1C[C@@H](NCc2ccc(N3CCNCC3)cc2)CN(c2ccc(C#N)c3nccnc23)C1` [Example 3, 8-[(3S,5R)-3-methyl-5-[(4-piperazin-1-ylphenyl)methylamino]-1-piperidyl]quinoxaline-5-carbonitrile], `C[C@H]1C[C@@H](NCc2ccc(N3CCNCC3)cn2)CN(c2ccc(C#N)c3ncccc23)C1` [Example 5, 5-[(3S,5R)-3-methyl-5-[(5-piperazin-1-yl-2-pyridyl)methylamino]-1-piperidyl]quinoline-8-carbonitrile] is 1.8-fold lower in IC50: 30 nM for the first, 17 nM for the second. The second is the more potent here.

Compared with `C[C@H]1C[C@@H](NCc2cccc(N3CCN(C)CC3)c2)CN(c2ccc(C#N)c3ncccc23)C1` [Example 6, 5-[(3S,5R)-3-methyl-5-[[3-(4-methylpiperazin-1-yl)phenyl]methylamino]-1-piperidyl]quinoline-8-carbonitrile], `C[C@H]1C[C@@H](NCc2ccc(N3CCN(C)CC3)cc2)CN(c2ccc(C#N)c3ncccc23)C1` [Example 7, 5-[(3S,5R)-3-methyl-5-[[4-(4-methylpiperazin-1-yl)phenyl]methylamino]-1-piperidyl]quinoline-8-carbonitrile] is 2.6-fold lower in IC50: 42 nM for the first, 16 nM for the second. The second is the more potent here.

Going from `C[C@H]1C[C@@H](NCc2cccc(N3CCNCC3)c2)CN(c2ccc(C#N)c3ncccc23)C1` [Example 8, 5-[(3S,5R)-3-methyl-5-[(3-piperazin-1-ylphenyl)methylamino]-1-piperidyl]quinoline-8-carbonitrile] to `C[C@H]1C[C@@H](NCc2ncc(N3CCNCC3)cn2)CN(c2ccc(C#N)c3ncccc23)C1` [Example 25, 5-[(3S,5R)-3-methyl-5-[(5-piperazin-1-ylpyrimidin-2-yl)methylamino]-1-piperidyl]quinoline-8-carbonitrile], the IC50 falls from 39 nM to 15 nM (2.6-fold). The second is the more potent here.

Compared with `C[C@H]1C[C@@H](N(C)Cc2ccc(N3CCNCC3)cc2)CN(c2ccc(C#N)c3ncccc23)C1` [Example 9, 5-[(3S,5R)-3-methyl-5-[methyl-[(4-piperazin-1-ylphenyl)methyl]amino]-1-piperidyl]quinoline-8-carbonitrile], `CC(N[C@@H]1C[C@H](C)CN(c2ccc(C#N)c3ncccc23)C1)c1ccc(N2CCNCC2)cc1` (stereo partly drawn) [Example 26, 5-[(3S,5R)-3-methyl-5-[1-(4-piperazin-1-ylphenyl)ethylamino]-1-piperidyl]quinoline-8-carbonitrile] is 6.1-fold higher in IC50: 15 nM for the first, 91 nM for the second.

`C[C@H]1C[C@@H](NCc2ccc3c(c2)CCNC3)CN(c2ccc(C#N)c3ncccc23)C1` [Example 11, 5-[(3S,5R)-3-methyl-5-(1,2,3,4-tetrahydroisoquinolin-6-ylmethylamino)-1-piperidyl]quinoline-8-carbonitrile] and `C[C@H]1C[C@@H](NCc2ccc3c(n2)CCNC3)CN(c2ccc(C#N)c3ncccc23)C1` [Example 30, 5-[(3S,5R)-3-methyl-5-(5,6,7,8-tetrahydro-1,6-naphthyridin-2-ylmethylamino)-1-piperidyl]quinoline-8-carbonitrile] are within 1.5-fold of each other in IC50: 15 nM for the first, 16 nM for the second.

`C[C@H]1C[C@@H](NCc2ccc(N3CCC(N)C3)cc2)CN(c2ccc(C#N)c3ncccc23)C1` (stereo partly drawn) [Example 13, 5-[(3R,5S)-3-[[4-(3-aminopyrrolidin-1-yl)phenyl]methylamino]-5-methyl-1-piperidyl]quinoline-8-carbonitrile] and `C[C@H]1C[C@@H](NCc2ccc(N3CCNCC3)cc2)CN(c2ccc(Cl)c3ncccc23)C1` [Example 22, (3R,5S)-1-(8-chloro-5-quinolyl)-5-methyl-N-[(4-piperazin-1-ylphenyl)methyl]piperidin-3-amine] are within 1.5-fold of each other in IC50: 19 nM for the first, 23 nM for the second.

Going from `Cc1cc(-c2ccc(CN[C@@H]3C[C@H](C)CN(c4ccc(C#N)c5ncccc45)C3)cc2)cc(C)n1` [Example 15, 5-[(3R,5S)-3-[[4-(2,6-dimethyl-4-pyridyl)phenyl]methylamino]-5-methyl-1-piperidyl]quinoline-8-carbonitrile] to `C[C@H]1C[C@@H](NCc2cnc(N3CCN[C@H](C)C3)nc2)CN(c2ccc(C#N)c3ncccc23)C1` [Example 28, 5-[(3S,5R)-3-methyl-5-[[2-[(3R)-3-methylpiperazin-1-yl]pyrimidin-5-yl]methylamino]-1-piperidyl]quinoline-8-carbonitrile], the IC50 falls from 84 nM to 12 nM (7-fold). The second is the more potent here.

`C[C@H]1C[C@@H](NCc2cnc(N3CCN(C)CC3)nc2)CN(c2ccc(C#N)c3ncccc23)C1` [Example 16, 5-[(3S,5R)-3-methyl-5-[[2-(4-methylpiperazin-1-yl)pyrimidin-5-yl]methylamino]-1-piperidyl]quinoline-8-carbonitrile] and `C[C@H]1C[C@@H](NCc2cnc(N3CCN[C@@H](C)C3)nc2)CN(c2ccc(C#N)c3ncccc23)C1` [Example 29, 5-[(3S,5R)-3-methyl-5-[[2-[(3S)-3-methylpiperazin-1-yl]pyrimidin-5-yl]methylamino]-1-piperidyl]quinoline-8-carbonitrile] are within 1.5-fold of each other in IC50: 11 nM for the first, 8 nM for the second.

Compared with `C[C@H]1C[C@@H](NCc2ccc(N3CCN(C)CC3)cn2)CN(c2ccc(C#N)c3ncsc23)C1` [Example 18, 7-[(3S,5R)-3-methyl-5-[[5-(4-methylpiperazin-1-yl)-2-pyridyl]methylamino]-1-piperidyl]-1,3-benzothiazole-4-carbonitrile], `C[C@H]1C[C@@H](NCc2cnc(N3CCNCC3)cn2)CN(c2ccc(C#N)c3ncccc23)C1` [Example 31, 5-[(3S,5R)-3-methyl-5-[(5-piperazin-1-ylpyrazin-2-yl)methylamino]-1-piperidyl]quinoline-8-carbonitrile] is lower in IC50: 11 nM for the first, ≤ 3 nM for the second.
